Experimental data from patent publication US9427440B2, “Macrocyclic indole derivatives useful as hepatitis C virus inhibitors” (Janssen Sciences Ireland UC, priority 2008, dated 2016).

Experiments:
[1] = tested on: HCV type 1b replicon in Huh-7 luc/neo (Huh-Luc) cells; test: HCV replicon assay (Huh-Luc, luciferase); conditions: Hepatitis C virus, Huh-7, 72 h
HCV NS5B 1bJ4 = HCV NS5B 1bJ4 (Hepatitis C virus genotype 1b (strain HC-J4) (HCV), UniProt O92972); test: Inhibition assay with NS5b 1bJ4 (RdRp, SPA); assay type: biochemical; conditions: 50 nM NS5B 1bJ4 enzyme, radiolabeled GTP incorporation
Sequence of HCV NS5B 1bJ4 (O92972 whole entry, looked up): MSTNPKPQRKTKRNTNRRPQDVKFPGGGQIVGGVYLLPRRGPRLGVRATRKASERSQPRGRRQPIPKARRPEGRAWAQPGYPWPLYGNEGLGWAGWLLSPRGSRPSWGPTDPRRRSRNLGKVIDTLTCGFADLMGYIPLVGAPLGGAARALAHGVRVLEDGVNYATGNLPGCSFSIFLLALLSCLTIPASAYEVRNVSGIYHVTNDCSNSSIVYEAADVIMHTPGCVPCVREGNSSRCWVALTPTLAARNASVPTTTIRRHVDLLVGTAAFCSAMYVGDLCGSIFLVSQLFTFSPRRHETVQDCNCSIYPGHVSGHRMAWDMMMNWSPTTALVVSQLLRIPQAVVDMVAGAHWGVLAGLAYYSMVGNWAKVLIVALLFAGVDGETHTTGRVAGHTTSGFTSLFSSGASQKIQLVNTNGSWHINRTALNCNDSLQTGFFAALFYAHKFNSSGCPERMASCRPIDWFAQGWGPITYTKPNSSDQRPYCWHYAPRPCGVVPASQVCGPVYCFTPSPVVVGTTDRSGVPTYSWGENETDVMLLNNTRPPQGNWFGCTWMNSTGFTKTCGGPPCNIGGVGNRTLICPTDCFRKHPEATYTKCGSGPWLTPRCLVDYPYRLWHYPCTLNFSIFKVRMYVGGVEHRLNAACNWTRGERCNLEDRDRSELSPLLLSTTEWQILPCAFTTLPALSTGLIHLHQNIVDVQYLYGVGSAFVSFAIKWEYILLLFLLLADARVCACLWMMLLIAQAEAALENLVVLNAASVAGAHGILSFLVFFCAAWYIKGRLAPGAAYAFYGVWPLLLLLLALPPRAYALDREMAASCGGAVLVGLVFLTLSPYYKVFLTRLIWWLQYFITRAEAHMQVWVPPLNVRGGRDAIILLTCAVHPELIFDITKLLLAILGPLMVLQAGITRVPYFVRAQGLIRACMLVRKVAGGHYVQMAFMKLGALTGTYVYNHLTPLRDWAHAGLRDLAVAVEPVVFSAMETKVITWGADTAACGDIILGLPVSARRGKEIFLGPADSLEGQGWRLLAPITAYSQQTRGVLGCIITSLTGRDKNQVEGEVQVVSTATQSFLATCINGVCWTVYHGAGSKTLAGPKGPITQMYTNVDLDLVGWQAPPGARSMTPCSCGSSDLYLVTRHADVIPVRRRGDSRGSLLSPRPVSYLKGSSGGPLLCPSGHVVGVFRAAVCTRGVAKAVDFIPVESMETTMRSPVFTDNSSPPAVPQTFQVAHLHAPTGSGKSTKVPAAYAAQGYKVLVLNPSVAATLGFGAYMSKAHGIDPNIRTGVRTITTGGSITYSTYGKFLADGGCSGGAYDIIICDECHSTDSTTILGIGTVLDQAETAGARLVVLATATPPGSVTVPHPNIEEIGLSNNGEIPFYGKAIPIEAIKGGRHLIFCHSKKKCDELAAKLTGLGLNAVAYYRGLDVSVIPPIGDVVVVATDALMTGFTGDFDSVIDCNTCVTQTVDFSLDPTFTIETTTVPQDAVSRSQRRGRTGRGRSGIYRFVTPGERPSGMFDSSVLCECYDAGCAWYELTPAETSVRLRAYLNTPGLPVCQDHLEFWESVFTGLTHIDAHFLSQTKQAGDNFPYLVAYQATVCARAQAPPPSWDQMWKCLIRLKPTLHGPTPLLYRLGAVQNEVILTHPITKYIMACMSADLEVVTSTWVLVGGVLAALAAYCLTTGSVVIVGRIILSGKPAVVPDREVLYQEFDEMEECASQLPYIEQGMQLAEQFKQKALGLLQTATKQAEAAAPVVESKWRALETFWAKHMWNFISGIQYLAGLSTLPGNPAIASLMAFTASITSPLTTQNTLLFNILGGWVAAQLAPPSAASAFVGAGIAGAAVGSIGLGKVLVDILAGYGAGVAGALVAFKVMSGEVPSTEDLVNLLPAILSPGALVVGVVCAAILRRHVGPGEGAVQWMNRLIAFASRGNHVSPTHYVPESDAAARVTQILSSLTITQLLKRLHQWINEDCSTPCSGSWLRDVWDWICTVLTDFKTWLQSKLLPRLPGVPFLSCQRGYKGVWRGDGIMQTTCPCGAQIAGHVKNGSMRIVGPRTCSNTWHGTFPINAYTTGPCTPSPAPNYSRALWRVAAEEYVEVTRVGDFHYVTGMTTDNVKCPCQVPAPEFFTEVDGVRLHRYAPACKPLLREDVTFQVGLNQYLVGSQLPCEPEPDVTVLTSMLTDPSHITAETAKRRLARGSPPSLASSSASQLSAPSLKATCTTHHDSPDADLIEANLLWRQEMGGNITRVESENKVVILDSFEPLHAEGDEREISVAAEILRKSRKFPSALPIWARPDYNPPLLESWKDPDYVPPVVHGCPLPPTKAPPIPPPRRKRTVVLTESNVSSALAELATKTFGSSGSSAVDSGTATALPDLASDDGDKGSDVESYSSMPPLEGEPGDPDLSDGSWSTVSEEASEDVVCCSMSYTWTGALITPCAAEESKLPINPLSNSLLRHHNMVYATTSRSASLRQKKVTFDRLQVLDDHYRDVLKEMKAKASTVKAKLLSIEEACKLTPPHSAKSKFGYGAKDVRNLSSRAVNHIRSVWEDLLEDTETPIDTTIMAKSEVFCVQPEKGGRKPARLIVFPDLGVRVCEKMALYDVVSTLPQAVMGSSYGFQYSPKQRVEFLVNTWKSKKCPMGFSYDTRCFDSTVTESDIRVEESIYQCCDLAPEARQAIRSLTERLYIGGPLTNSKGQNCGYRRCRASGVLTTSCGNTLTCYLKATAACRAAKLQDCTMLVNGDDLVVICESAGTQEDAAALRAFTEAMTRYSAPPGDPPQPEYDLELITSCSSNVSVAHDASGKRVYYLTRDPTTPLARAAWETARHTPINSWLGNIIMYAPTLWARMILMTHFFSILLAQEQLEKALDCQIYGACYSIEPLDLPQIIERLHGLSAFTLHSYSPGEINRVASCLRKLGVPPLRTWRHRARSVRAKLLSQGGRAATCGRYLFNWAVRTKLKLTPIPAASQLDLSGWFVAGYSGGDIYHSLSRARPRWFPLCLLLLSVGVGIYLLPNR

HCV NS5B con1b = HCV NS5B con1b (Hepatitis C virus genotype 1b (isolate Con1) (HCV), UniProt Q9WMX2); test: RNA-dependent RNA polymerase assay NS5B con1b; conditions: read-out: IC50 Con1b; 20 nM Con1b NS5B enzyme, primer-dependent transcription assay
Experimental: Fifty-percent inhibitory concentrations (Table 1: IC50 con1b) were determined according to the method as described previously (Pauwels et al, 2007, J Virol 81:6909-19) using a primer-dependent transcription assay. […] 600 nM GTP and 0.13 μCi of [^3H]GTP was then added to initiate the 40-μl reaction mixture, which was then incubated at room temperature for 2 h before the reaction was stopped by addition of 40-μl streptavidin-coated SPA beads.

NS5B 5a isolate 4 = NS5B 5a isolate 4 (Hepatitis C virus genotype 5a, UniProt O39928); test: Enzyme binding affinity, SPR (Biacore); set-up: species or system HCV
NS5B 1a isolate 1 = NS5B 1a isolate 1 (Hepatitis C virus genotype 1a, UniProt P27958)
NS5B 1a isolate 2 = NS5B 1a isolate 2 (Hepatitis C virus genotype 1a, UniProt P27958)
NS5B 1a isolate 3 = NS5B 1a isolate 3 (Hepatitis C virus genotype 1a, UniProt P27958)
NS5B 1a isolate 4 = NS5B 1a isolate 4 (Hepatitis C virus genotype 1a, UniProt P27958)
NS5B 1b isolate 2 = NS5B 1b isolate 2 (Hepatitis C virus genotype 1b, UniProt Q9WMX2)
NS5B 1b isolate 3 = NS5B 1b isolate 3 (Hepatitis C virus genotype 1b, UniProt Q9WMX2)
NS5B 2b isolate 2 = NS5B 2b isolate 2 (Hepatitis C virus genotype 2b, UniProt P26661)
NS5B 4a isolate 1 [2] = molecular target: T1, NS5B 4a isolate 1 (Hepatitis C virus genotype 4a, UniProt O39929)
NS5B 4a isolate 2 [3] = molecular target: T2, NS5B 4a isolate 2 (Hepatitis C virus genotype 4a, UniProt O39929)
NS5B 4a isolate 3 [4] = molecular target: T3, NS5B 4a isolate 3 (Hepatitis C virus genotype 4a, UniProt O39929)
NS5B 6a isolate 5 [5] = molecular target: T4, NS5B 6a isolate 5 (Hepatitis C virus genotype 6a, UniProt O39927)
NS5B 4a isolate 1 [6] = molecular target: T1, NS5B 4a isolate 1; test: biochemical
NS5B 4a isolate 2 [7] = molecular target: T2, NS5B 4a isolate 2; test: biochemical
NS5B 4a isolate 3 [8] = molecular target: T3, NS5B 4a isolate 3; test: biochemical
NS5B 6a isolate 5 [9] = molecular target: T4, NS5B 6a isolate 5; test: biochemical

Structure (SMILES) | EC50 [1] | other results
CN1CCOCCN(C)S(=O)(=O)NC(=O)c2ccc3c(C4CCCCC4)c4n(c3c2)CC(=Cc2cc(Cl)ccc2-4)C1=O [Compound 21] | 280 nM | 
COc1ccc2c(c1)C=C1Cn3c-2c(C2CCCCC2)c2ccc(cc23)C(=O)NS(=O)(=O)N(C)CCCCCCN(C)C1=O [Compound 22] | 160 nM | 
COc1ccc2c(c1)[C@@H]1C[C@]13Cn1c-2c(C2CCCCC2)c2ccc(cc21)C(=O)NS(=O)(=O)N(C)CCOCCN(C)C3=O [Compound 8, (1aR,12bS)-8-cyclohexyl-11-methoxy-16,22-dimethyl-1,12b-dihydro-5,1a-(methanoiminothioiminoethanooxyethanoiminomethano)cyclopropa[d]-indolo[2,1-a][2]benzazepine-13,23(2H)-dione 15,15-dioxide] | 40 nM | 
COc1ccc2c(c1)C=C1Cn3c-2c(C2CCCCC2)c2ccc(cc23)C(=O)NS(=O)(=O)N(C)CCCCN(C)C1=O [Compound 18] | 79 nM | 
COc1ccc2c(c1)C=C1Cn3c-2c(C2CCCCC2)c2ccc(cc23)C(=O)NS(=O)(=O)NCCN(C)CCNC1=O [Compound 23] | 470 nM | 
COc1ccc2c(c1)C=C1Cn3c-2c(C2CCCCC2)c2ccc(cc23)C(=O)NS(=O)(=O)N(C)CCN(C)CCNC1=O [Compound 6] | 550 nM | 
CN1CCCCN(C)S(=O)(=O)NC(=O)c2ccc3c(C4CCCCC4)c4n(c3c2)CC(=Cc2ccc(Cl)cc2-4)C1=O [Compound 24] | 14500 nM | 
COc1ccc2c(c1)C=C1Cn3c-2c(C2CCCCC2)c2ccc(cc23)C(=O)NS(=O)(=O)N(C)CCCCNC1=O [Compound 38] | 912 nM | 
COc1ccc2c(c1)C(C)=C1Cn3c-2c(C2CCCCC2)c2ccc(cc23)C(=O)NS(=O)(=O)N(C)CCOCCN(C)C1=O [Compound 16] | 78 nM | 
COc1ccc2c(c1)[C@H]1C[C@@]13Cn1c-2c(C2CCCCC2)c2ccc(cc21)C(=O)NS(=O)(=O)N(C)CCOCCN(C)C3=O [Compound 9, (1 aS,12bR)-8-cyclohexyl-11-methoxy-16,22-dimethyl-1,12b-dihydro-5,1a-(methanoiminothioiminoethanooxyethanoiminomethano)cyclopropa[d]indolo-[2,1-a][2]benzazepine-13,23(2H)-dione 15,15-dioxide] | 800 nM | 
CN1CCCCCNC(=O)C2=Cc3ccc(Cl)cc3-c3c(C4CCCCC4)c4ccc(cc4n3C2)C(=O)NS1(=O)=O [Compound 27] | 10200 nM | 
COc1ccc2c(c1)C1CC13Cn1c-2c(C2CCCCC2)c2ccc(cc21)C(=O)NS(=O)(=O)N(C)CCCCNC3=O (stereo not shown) [Compound 10, 8-cyclohexyl-11-methoxy-16-methyl-1,12b-dihydro-5,1a-(methanoiminothioiminobutanoimino)cyclopropa[d]indolo[2,1-a][2]benzazepine-13,22(2H)-dione 15,15-dioxide] | 60 nM | IC50 (HCV NS5B 1bJ4): 280 nM
CC1=C2Cn3c(c(C4CCCCC4)c4ccc(cc43)C(=O)NS(=O)(=O)N(C)CCOCCN(C)C2=O)-c2ccc(F)cc21 [Compound 20] | 81 nM | IC50 (HCV NS5B con1b): 38 nM
COc1ccc2c(c1)C(C)=C1Cn3c-2c(C2CCCCC2)c2ccc(cc23)C(=O)NS(=O)(=O)N(C)CCCCN(C)C1=O [Compound 17] | 170 nM | 
COc1ccc2c(c1)C=C1Cn3c-2c(C2CCCCC2)c2ccc(cc23)C(=O)NS(=O)(=O)N(C)CC=CCNC1=O [Compound 13] | 390 nM | IC50 (HCV NS5B 1bJ4): 190 nM
COc1ccc2c(c1)C=C1Cn3c-2c(C2CCCCC2)c2ccc(cc23)C(=O)NS(=O)(=O)N(C(C)C)CCCCN(C)C1=O [Compound 28] | 330 nM | 
COc1ccc2c(c1)C=C1Cn3c-2c(C2CCCCC2)c2ccc(cc23)C(=O)NS(=O)(=O)NCCCCN(C)C1=O [Compound 25] | 550 nM | 
COc1ccc2c(c1)C=C1Cn3c-2c(C2CCCCC2)c2ccc(cc23)C(=O)NS(=O)(=O)N(C)CCN2CCN(CC2)C1=O [Compound 15] | 180 nM | 
COc1ccc2c(c1)C=C1Cn3c-2c(C2CCCCC2)c2ccc(cc23)C(=O)NS(=O)(=O)N(C)CCCCCNC1=O [Compound 26] | 130 nM | 
CN1CCOCCN(C)S(=O)(=O)NC(=O)c2ccc3c(C4CCCCC4)c4n(c3c2)CC(=Cc2cc(F)ccc2-4)C1=O [Compound 19] | 72 nM | IC50 (HCV NS5B con1b): 31 nM
COc1ccc2c(c1)C1CC13Cn1c-2c(C2CCCCC2)c2ccc(cc21)C(=O)NS(=O)(=O)N(C)C/C=C/CCNC3=O (stereo not shown) [Compound 12, 8-cyclohexyl-11-methoxy-16-methyl-1,12b-dihydro-5,1a-(methaniminothio-iminopent[2]enoiminomethano)cyclopropa[d]indolo[2,1-a][2]benzazepine-13,23(2H)-dione 15,15-dioxide] | 290 nM | IC50 (HCV NS5B 1bJ4): 930 nM
COc1ccc2c(c1)C1CC13Cn1c-2c(C2CCCCC2)c2ccc(cc21)C(=O)NS(=O)(=O)N(C)CCN1CCN(CC1)C3=O (stereo not shown) [Compound 11, 31-cyclohexyl-8-methoxy-22-methyl-21-thia-1,13,20,22,25-pentaazaheptacyclo-[23.2.2.1^3,13.1^12,15.1^14,18.0^3,5.0^6,11]dotriaconta-6,8,10,12(31),14(30),15,17-heptaene-2,19-dione 21,21-dioxide] | 55 nM | IC50 (HCV NS5B 1bJ4): 220 nM
COc1ccc2c(c1)C=C1Cn3c-2c(C2CCCCC2)c2ccc(cc23)C(=O)NS(=O)(=O)N(C)CCOCCN(C)C1=O [Compound 1] |  | Kd (NS5B 5a isolate 4): 22 nM; t1/2 (NS5B 1a isolate 1): 24.2 min; t1/2 (NS5B 1a isolate 2): 31.3 min; t1/2 (NS5B 1a isolate 3): 19.2 min; t1/2 (NS5B 1a isolate 4): 14.9 min; t1/2 (NS5B 1b isolate 2): 172.1 min; t1/2 (NS5B 1b isolate 3): 96.4 min; t1/2 (NS5B 2b isolate 2): 1.0 min; t1/2 (NS5B 4a isolate 1 [2]): 26.7 min; t1/2 (NS5B 4a isolate 2 [3]): 30.1 min; t1/2 (NS5B 4a isolate 3 [4]): 19.1 min; t1/2 (NS5B 6a isolate 5 [5]): 7.3 min; Kd (NS5B 4a isolate 1 [6]): 2.1 nM; Kd (NS5B 4a isolate 2 [7]): 1.4 nM; Kd (NS5B 4a isolate 3 [8]): 3.4 nM; Kd (NS5B 6a isolate 5 [9]): 32 nM
COc1ccc2c(c1)C=C1Cn3c-2c(C2CCCCC2)c2ccc(cc23)C(=O)NS(=O)(=O)N2CCN(CCNC1=O)CC2 [Compound 5] | 920 nM | IC50 (HCV NS5B 1bJ4): 290 nM
